In patent US7265129B2, “Anti-infective biaryl compounds” (priority 2002, dated 2007):

Key:
B. cereus ATCC 11778 = experiment: MIC, NCCLS broth microdilution, B. cereus; assay type: cell-based, Bacillus cereus
Text: (§1) It vitro biological activity data were collected for a variety of microorganisms, including Bacillus cereus (ATCC 11778), Staphylococcus aureus (ATCC 33591; ATCC 27660, a methicillin resistant strain (MRSA); ATCC 13709, a methicillin sensitive strain (MSSA)), Enterococcus faecalis (ATCC 29212), and Streptococcus pneumoniae (ATCC 49619). Additionally, antifungal activity data were collected for Candida albicans (ATCC 38247).
(§2) Compounds according to this invention were screened for their in vitro activities against selected species of bacteria and fungi. The minimal inhibition concentration (MIC) of these compounds was determined using the National Committee for Clinical Laboratory Standards (NCCLS) broth microdilution assay in microtiter plates, as set forth in: (1) the guidelines of the National Committee for Clinical Laboratory Standards (NCCLS) Document M7-A4 (NCCLS, 1997); (2) the guidelines of the National Committee for Clinical Laboratory Standards (NCCLS) Document M11-A4 (NCCLS, 1997); and (3) the guidelines and reference method of the National Committee for Clinical Laboratory Standards (NCCLS) Document M27-T (NCCLS, 1995). For antifungal assays, the method recommended in Murray, P R., 1995 Manual of Clinical Microbiology (ASM Press, Washington, D.C.), was employed.

E. faecium ATCC 51559 = experiment: MIC, E. faecium VRE; assay type: cell-based, Enterococcus faccium; conditions: Table C; E. faecium ATCC 51559, vancomycin resistant strain (VRE)
Description: as §2
(§3) Additionally, some compounds were screened against Enterococcus faccium (ATCC 51559, a vancomycin resistant strain (VRE)), Staphylococcus epidermidis (ATCC 12228), Streptococcus pneumoniae (ATCC 51422, a penicillin resistant strain (PRSP)), and/or Streptococcus pyogenes (ATCC 49399).

S. aureus ATCC 13709 = experiment: MIC, NCCLS broth microdilution, S. aureus MSSA; assay type: cell-based, Staphylococcus aureus; conditions: S. aureus ATCC 13709, methicillin sensitive strain (MSSA)
Text: as §1, §2

C. albicans ATCC 38247 = experiment: MIC, antifungal assay, C. albicans; assay type: cell-based, Candida albicans
Text: as §1, §2

[1] = MIC, Table C (organism not given); assay type: cell-based
Description: as §2, §3

[2] = test system: S. epidermidis ATCC 12228; experiment: MIC, S. epidermidis; assay type: cell-based, Staphylococcus epidermidis; conditions: Table C
Description: as §2, §3

E. faecalis ATCC 29212 = experiment: MIC, NCCLS broth microdilution, E. faecalis; assay type: cell-based, Enterococcus faecalis
Text: as §1, §2

S. pneumoniae ATCC 49619 = experiment: MIC, NCCLS broth microdilution, S. pneumoniae; assay type: cell-based, Streptococcus pneumoniae
Text: as §1, §2

S. aureus ATCC 27660 = experiment: MIC, NCCLS broth microdilution, S. aureus MRSA; assay type: cell-based, Staphylococcus aureus; conditions: S. aureus ATCC 27660, methicillin resistant strain (MRSA)
Text: as §1, §2

S. aureus ATCC 33591 = experiment: MIC, NCCLS broth microdilution, S. aureus ATCC 33591; assay type: cell-based, Staphylococcus aureus
Text: as §1, §2

With `CN(C)CCCn1cc(NC(=O)c2cc3ccccc3cn2)cc1C(=O)Nc1cc(-c2nc3ccccc3[nH]2)n(C)c1` [Compound A-1] the “Minimum Inhibitory Concentration (MIC), organism A” value (B. cereus ATCC 11778) was “+++ (MIC ≦ 4 μg/mL)”, the “Minimum Inhibitory Concentration (MIC), organism A” value (E. faecium ATCC 51559) was “+++ (MIC ≦ 4 pg/mL)” and the “Minimum Inhibitory Concentration (MIC), organism D” value (S. aureus ATCC 13709) was “+++ (MIC ≦ 4 μg/mL)”. For the same compound, the “Minimum Inhibitory Concentration (MIC), organism B” value (C. albicans ATCC 38247) was “+++ (MIC ≦ 4 μg/mL)”, the “Minimum Inhibitory Concentration (MIC), organism E” value [1] was “+++ (MIC ≦ 4 pg/mL)” and the “Minimum Inhibitory Concentration (MIC), organism B” value [2] was “+++ (MIC ≦ 4 pg/mL)”. The “Minimum Inhibitory Concentration (MIC), organism C” value (E. faecalis ATCC 29212) was “+++ (MIC ≦ 4 μg/mL)”, the “Minimum Inhibitory Concentration (MIC), organism G” value (S. pneumoniae ATCC 49619) was “+++ (MIC ≦ 4 μg/mL)” and the “Minimum Inhibitory Concentration (MIC), organism E” value (S. aureus ATCC 27660) was “+++ (MIC ≦ 4 μg/mL)”. For the same compound, the “Minimum Inhibitory Concentration (MIC), organism F” value (S. aureus ATCC 33591) was “+++ (MIC ≦ 4 μg/mL)”.

In the case of `Cc1ccc2nc(-c3cc(NC(=O)c4cc(NC(=O)c5cc6ccccc6cn5)cn4C)cn3C)[nH]c2c1` [Compound A-2], the “Minimum Inhibitory Concentration (MIC), organism A” value (B. cereus ATCC 11778) is reported as “+++ (MIC ≦ 4 μg/mL)”, the “Minimum Inhibitory Concentration (MIC), organism A” value (E. faecium ATCC 51559) is reported as “+++ (MIC ≦ 4 pg/mL)” and the “Minimum Inhibitory Concentration (MIC), organism D” value (S. aureus ATCC 13709) is reported as “+++ (MIC ≦ 4 μg/mL)”. The “Minimum Inhibitory Concentration (MIC), organism B” value (C. albicans ATCC 38247) was >32 µg/mL, the “Minimum Inhibitory Concentration (MIC), organism E” value [1] was “+++ (MIC ≦ 4 pg/mL)” and the “Minimum Inhibitory Concentration (MIC), organism B” value [2] was “+++ (MIC ≦ 4 pg/mL)”. The “Minimum Inhibitory Concentration (MIC), organism C” value (E. faecalis ATCC 29212) was “+++ (MIC ≦ 4 μg/mL)”, the “Minimum Inhibitory Concentration (MIC), organism G” value (S. pneumoniae ATCC 49619) was “+++ (MIC ≦ 4 μg/mL)” and the “Minimum Inhibitory Concentration (MIC), organism E” value (S. aureus ATCC 27660) was “+++ (MIC ≦ 4 μg/mL)”. For the same compound, the “Minimum Inhibitory Concentration (MIC), organism F” value (S. aureus ATCC 33591) was “+++ (MIC ≦ 4 μg/mL)”.

With `Cn1cc(NC(=O)c2cc(NC(=O)c3ccc(Cl)cc3F)cn2CCCN2CCC(O)CC2)cc1-c1nc2cccnc2[nH]1` [Compound A-42] the “Minimum Inhibitory Concentration (MIC), organism A” value (B. cereus ATCC 11778) was “+++ (MIC ≦ 4 μg/mL)”, the “Minimum Inhibitory Concentration (MIC), organism D” value (S. aureus ATCC 13709) was “+++ (MIC ≦ 4 μg/mL)” and the “Minimum Inhibitory Concentration (MIC), organism B” value (C. albicans ATCC 38247) was “+ (12 ≦ MIC ≦ 32 μg/mL)”. The “Minimum Inhibitory Concentration (MIC), organism C” value (E. faecalis ATCC 29212) was “+++ (MIC ≦ 4 μg/mL)”, the “Minimum Inhibitory Concentration (MIC), organism G” value (S. pneumoniae ATCC 49619) was “+++ (MIC ≦ 4 μg/mL)” and the “Minimum Inhibitory Concentration (MIC), organism E” value (S. aureus ATCC 27660) was “+++ (MIC ≦ 4 μg/mL)”. For the same compound, the “Minimum Inhibitory Concentration (MIC), organism F” value (S. aureus ATCC 33591) was “+++ (MIC ≦ 4 μg/mL)”.

With `Cn1cc(NC(=O)c2cc(NC(=O)c3ccc(Cl)cc3F)cn2CCCN(CCO)CCO)cc1-c1nc2cccnc2[nH]1` [Compound A-44] the “Minimum Inhibitory Concentration (MIC), organism A” value (B. cereus ATCC 11778) was “+ (12 ≦ MIC ≦ 32 μg/mL)”, the “Minimum Inhibitory Concentration (MIC), organism D” value (S. aureus ATCC 13709) was “++ (4 < MIC < 12 μg/mL)” and the “Minimum Inhibitory Concentration (MIC), organism B” value (C. albicans ATCC 38247) was >32 µg/mL. For the same compound, the “Minimum Inhibitory Concentration (MIC), organism C” value (E. faecalis ATCC 29212) was “++ (4 < MIC < 12 μg/mL)”, the “Minimum Inhibitory Concentration (MIC), organism G” value (S. pneumoniae ATCC 49619) was “+++ (MIC ≦ 4 μg/mL)” and the “Minimum Inhibitory Concentration (MIC), organism E” value (S. aureus ATCC 27660) was “+++ (MIC ≦ 4 μg/mL)”. The “Minimum Inhibitory Concentration (MIC), organism F” value (S. aureus ATCC 33591) was “+++ (MIC ≦ 4 μg/mL)”.

With `CN(C)CCCn1cc(NC(=O)c2ccc(Cl)cc2F)cc1C(=O)Nc1cc(-c2nc3cncnc3[nH]2)n(C)c1` [Compound A-46] the “Minimum Inhibitory Concentration (MIC), organism A” value (B. cereus ATCC 11778) was “+++ (MIC ≦ 4 μg/mL)”, the “Minimum Inhibitory Concentration (MIC), organism D” value (S. aureus ATCC 13709) was “+++ (MIC ≦ 4 μg/mL)” and the “Minimum Inhibitory Concentration (MIC), organism B” value (C. albicans ATCC 38247) was >32 µg/mL. For the same compound, the “Minimum Inhibitory Concentration (MIC), organism C” value (E. faecalis ATCC 29212) was “+++ (MIC ≦ 4 μg/mL)”, the “Minimum Inhibitory Concentration (MIC), organism G” value (S. pneumoniae ATCC 49619) was “+++ (MIC ≦ 4 μg/mL)” and the “Minimum Inhibitory Concentration (MIC), organism E” value (S. aureus ATCC 27660) was “+++ (MIC ≦ 4 μg/mL)”. The “Minimum Inhibitory Concentration (MIC), organism F” value (S. aureus ATCC 33591) was “+++ (MIC ≦ 4 μg/mL)”.

With `Cn1cc(NC(=O)c2sccc2Cl)cc1C(=O)Nc1cc(-c2nc3ccccc3[nH]2)n(C)c1` [Compound A-47] the “Minimum Inhibitory Concentration (MIC), organism A” value (B. cereus ATCC 11778) was “+++ (MIC ≦ 4 μg/mL)”, the “Minimum Inhibitory Concentration (MIC), organism D” value (S. aureus ATCC 13709) was “+++ (MIC ≦ 4 μg/mL)” and the “Minimum Inhibitory Concentration (MIC), organism B” value (C. albicans ATCC 38247) was “+ (12 ≦ MIC ≦ 32 μg/mL)”. The “Minimum Inhibitory Concentration (MIC), organism C” value (E. faecalis ATCC 29212) was “+++ (MIC ≦ 4 μg/mL)”, the “Minimum Inhibitory Concentration (MIC), organism G” value (S. pneumoniae ATCC 49619) was “+++ (MIC ≦ 4 μg/mL)” and the “Minimum Inhibitory Concentration (MIC), organism E” value (S. aureus ATCC 27660) was “+++ (MIC ≦ 4 μg/mL)”. For the same compound, the “Minimum Inhibitory Concentration (MIC), organism F” value (S. aureus ATCC 33591) was “+++ (MIC ≦ 4 μg/mL)”.
